Measured values as given in PubChem BioAssay AID248 (DTP/NCI, 2004).
Several values for one entry are separate records, joined by “and”; a condition that tells them apart may be missing. Equal values may be shown once. Inconclusive results and toxic doses are left out.

System: L1210 leukemia ip in BDF1 mice, survival T/C
Assay: NCI In Vivo Anticancer Drug Screen. Data for tumor model L1210 Leukemia (intraperitoneal) in B6D2F1 (BDF1) mice
Details: endpoint: mean survival time, higher = longer survival
In short: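 Read-out is survival time, reported as the treated-group measurement over the vehicle-control measurement.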

[1] = dose: 50.0 mg/kg/injection, schedule: Q01DX009 (ip), vehicle: Klucel (hydroxypropylcellulose) (HPC)
[2] = dose: 100.0 mg/kg/injection, schedule: Q01DX009 (ip), vehicle: Klucel (hydroxypropylcellulose) (HPC)
[3] = dose: 200.0 mg/kg/injection, schedule: Q01DX009 (ip), vehicle: Klucel (hydroxypropylcellulose) (HPC)
[4] = dose: 15.0 mg/kg/injection, schedule: Q01DX Z (ip), vehicle: saline
[5] = dose: 30.0 mg/kg/injection, schedule: Q01DX Z (ip), vehicle: saline
[6] = dose: 60.0 mg/kg/injection, schedule: Q01DX Z (ip), vehicle: saline
[7] = dose: 12.5 mg/kg/injection, schedule: Q04DX003 (ip), vehicle: saline
[8] = dose: 25.0 mg/kg/injection, schedule: Q04DX003 (ip), vehicle: saline
[9] = dose: 50.0 mg/kg/injection, schedule: Q04DX003 (ip), vehicle: saline
[10] = dose: 100.0 mg/kg/injection, schedule: Q01DX001 (ip), vehicle: saline
[11] = dose: 200.0 mg/kg/injection, schedule: Q01DX001 (ip), vehicle: saline
[12] = dose: 400.0 mg/kg/injection, schedule: Q01DX001 (ip), vehicle: saline
[13] = dose: 100.0 mg/kg/injection, schedule: Q04DX003 (ip), vehicle: Klucel (hydroxypropylcellulose) (HPC)
[14] = dose: 200.0 mg/kg/injection, schedule: Q04DX003 (ip), vehicle: Klucel (hydroxypropylcellulose) (HPC)
[15] = dose: 400.0 mg/kg/injection, schedule: Q01DX009 (ip), vehicle: Klucel (hydroxypropylcellulose) (HPC)
[16] = dose: 400.0 mg/kg/injection, schedule: Q04DX003 (ip), vehicle: Klucel (hydroxypropylcellulose) (HPC)
[17] = dose: 100.0 mg/kg/injection, schedule: Q01DX009 (ip), vehicle: saline
[18] = dose: 100.0 mg/kg/injection, schedule: Q04DX003 (ip), vehicle: saline
[19] = dose: 200.0 mg/kg/injection, schedule: Q01DX009 (ip), vehicle: saline
[20] = dose: 200.0 mg/kg/injection, schedule: Q04DX003 (ip), vehicle: saline
[21] = dose: 400.0 mg/kg/injection, schedule: Q01DX009 (ip), vehicle: saline
[22] = dose: 400.0 mg/kg/injection, schedule: Q04DX003 (ip), vehicle: saline

With `N#CC(C(N)=O)C1CC(=O)Oc2ccccc21` (stereo unspecified) the T/C [1] was 100 % of control, the T/C [2] was 105 % of control and the T/C [3] was 100 % of control.
For `O=C(Nc1ccc(C2=NCCN2)cc1)c1cncc(C(=O)Nc2ccc(C3=NCCN3)cc2)n1`, the T/C (dose: 31.0 mg/kg/injection, schedule: Q01DX Z (ip), vehicle: carboxymethylcellulose (CMC)) was 109 % of control, the T/C (dose: 62.5 mg/kg/injection, schedule: Q01DX Z (oral), vehicle: water) was 94 % of control and the T/C (dose: 125.0 mg/kg/injection, schedule: Q01DX Z (ip), vehicle: carboxymethylcellulose (CMC)) was 168 % of control. For the same compound, the T/C (dose: 125.0 mg/kg/injection, schedule: Q01DX Z (oral), vehicle: water) was 100 % of control, the T/C (dose: 250.0 mg/kg/injection, schedule: Q01DX Z (ip), vehicle: carboxymethylcellulose (CMC)) was 227 % of control and the T/C (dose: 250.0 mg/kg/injection, schedule: Q01DX Z (oral), vehicle: water) was 97 % of control. For the same compound, the T/C (dose: 500.0 mg/kg/injection, schedule: Q01DX Z (oral), vehicle: water) was 97 % of control.
`NC(N)=N/N=C/c1ccc([N+](=O)[O-])cc1` was tested, and the T/C [4] was 95 % of control, the T/C [5] was 95 % of control and the T/C (dose: 30.0 mg/kg/injection, schedule: Q01DX Z (oral), vehicle: other) was 104 % of control. For the same compound, the T/C [6] was 90 % of control, the T/C (dose: 60.0 mg/kg/injection, schedule: Q01DX Z (oral), vehicle: other) was 100 % of control and the T/C (dose: 120.0 mg/kg/injection, schedule: Q01DX Z (oral), vehicle: other) was 88 % of control.
In the case of `Nc1ncnc2c1ncn2CCCCCCl`, the T/C [7] is reported as 90 % of control, the T/C [8] is reported as 88 % of control and the T/C [9] is reported as 100 % of control.
`O=C(Nc1ccc(C(=O)Nc2cccc(C3=NCCN3)c2)cc1)Nc1ccc(C2=NCCN2)cc1` was tested, and the T/C [4] was 202 % of control, the T/C [5] was 183 % of control and the T/C [6] was 122 % of control. The T/C (dose: 120.0 mg/kg/injection, schedule: Q01DX Z (ip), vehicle: saline) was 100 % of control.
With `CN1CCC(C=C2c3ccccc3Sc3ccccc32)C1` (stereo unspecified) the T/C (dose: 8.0 mg/kg/injection, schedule: Q01DX015 (ip), vehicle: carboxymethylcellulose (CMC)) was 110 % of control, the T/C (dose: 16.0 mg/kg/injection, schedule: Q01DX015 (ip), vehicle: carboxymethylcellulose (CMC)) was 102 % of control and the T/C (dose: 32.0 mg/kg/injection, schedule: Q01DX015 (ip), vehicle: carboxymethylcellulose (CMC)) was 96 % of control. The T/C (dose: 64.0 mg/kg/injection, schedule: Q01DX015 (ip), vehicle: carboxymethylcellulose (CMC)) was 98 % of control.
In the case of `COc1ccc2c(ccc3ccc4ccccc4c32)c1`, the T/C (dose: 100.0 mg/kg/injection, schedule: Q01DX001 (ip), vehicle: Klucel (hydroxypropylcellulose) (HPC)) is reported as 105 % of control, the T/C (dose: 200.0 mg/kg/injection, schedule: Q01DX001 (ip), vehicle: Klucel (hydroxypropylcellulose) (HPC)) is reported as 102 % of control and the T/C (dose: 400.0 mg/kg/injection, schedule: Q01DX001 (ip), vehicle: Klucel (hydroxypropylcellulose) (HPC)) is reported as 100 % of control.
In the case of `C[n+]1c2ccccc2c(N=[N+]=[N-])c2ccccc21`, the T/C (dose: 6.25 mg/kg/injection, schedule: Q01DX001 (ip), vehicle: suspension in saline) is reported as 98 % of control, the T/C (dose: 12.5 mg/kg/injection, schedule: Q01DX001 (ip), vehicle: suspension in saline) is reported as 98 % of control and the T/C (dose: 12.5 mg/kg/injection, schedule: Q04DX003 (ip), vehicle: suspension in saline) is reported as 97 % of control. For the same compound, the T/C (dose: 25.0 mg/kg/injection, schedule: Q01DX001 (ip), vehicle: suspension in saline) was 98 % of control, the T/C (dose: 25.0 mg/kg/injection, schedule: Q04DX003 (ip), vehicle: suspension in saline) was 95 % of control and the T/C (dose: 50.0 mg/kg/injection, schedule: Q04DX003 (ip), vehicle: suspension in saline) was 105 % of control.
In the case of `COCC1CCCCC1O` (stereo unspecified), the T/C (dose: 50.0 mg/kg/injection, schedule: Q01DX001 (ip), vehicle: saline) is reported as 101 % of control, the T/C [10] is reported as 95 % of control and the T/C [11] is reported as 101 % of control. For the same compound, the T/C [12] was 98 % of control.
In the case of `c1ccc(CCCCc2ccccn2)cc1`, the T/C [2] is reported as 105 % of control, the T/C [13] is reported as 101 % of control and the T/C [3] is reported as 105 % of control. The T/C [14] was 105 % of control, the T/C [15] was 97 % of control and the T/C [16] was 94 % of control.
`CN=C(c1ccc(NC(=O)c2ccc(C(=O)Nc3ccc(C(=NC)N4CCOCC4)cc3)cc2)cc1)N1CCOCC1` was tested, and the T/C (dose: 0.9 mg/kg/injection, schedule: Q01DX Z (ip), vehicle: carboxymethylcellulose (CMC)) was 86 % of control, the T/C (dose: 1.87 mg/kg/injection, schedule: Q01DX Z (ip), vehicle: carboxymethylcellulose (CMC)) was 91 % of control and the T/C (dose: 3.75 mg/kg/injection, schedule: Q01DX Z (ip), vehicle: carboxymethylcellulose (CMC)) was 93 % of control. For the same compound, the T/C (dose: 7.5 mg/kg/injection, schedule: Q01DX Z (ip), vehicle: carboxymethylcellulose (CMC)) was 91 % of control and the T/C (dose: 15.0 mg/kg/injection, schedule: Q01DX Z (ip), vehicle: carboxymethylcellulose (CMC)) was 101 % of control.
For `CN(C=O)c1ccc(C(=O)N(C(=O)NC2CCCCC2)C2CCCCC2)cc1`, the T/C [10] was 98 % of control, the T/C [11] was 93 % of control and the T/C [12] was 90 % of control.
`Cc1cccc(SC(=O)Nc2cccc(Cl)c2C)c1` was tested, and the T/C (dose: 25.0 mg/kg/injection, schedule: Q01DX009 (ip), vehicle: gum acacia) was 100 % of control, the T/C (dose: 50.0 mg/kg/injection, schedule: Q01DX009 (ip), vehicle: gum acacia) was 99 % of control and the T/C (dose: 100.0 mg/kg/injection, schedule: Q01DX009 (ip), vehicle: gum acacia) was 97 % of control and 89 % of control.
For `CCCC(=O)c1c(C)cc(C)cc1C`, the T/C [2] was 97 % of control, the T/C [3] was 108 % of control and the T/C [15] was 97 % of control.
`Cc1cc(Cl)c(Cl)cc1NC(=O)c1ccccc1Cl` was tested, and the T/C (dose: 100.0 mg/kg/injection, schedule: Q04DX002 (ip), vehicle: Klucel (hydroxypropylcellulose) (HPC)) was 97 % of control, the T/C (dose: 200.0 mg/kg/injection, schedule: Q04DX002 (ip), vehicle: Klucel (hydroxypropylcellulose) (HPC)) was 97 % of control and the T/C (dose: 400.0 mg/kg/injection, schedule: Q04DX002 (ip), vehicle: Klucel (hydroxypropylcellulose) (HPC)) was 94 % of control.
For `CSc1cccc(NC(C)=O)c1`, the T/C [17] was 97 % of control, the T/C [18] was 93 % of control and the T/C [19] was 113 % of control. The T/C [20] was 97 % of control, the T/C [21] was 104 % of control and the T/C [22] was 101 % of control.
With `COc1cc2c(cc1OC(C)=O)C(=O)CCC=C2` the T/C [17] was 113 % of control, the T/C (dose: 100.0 mg/kg/injection, schedule: Q04DX003 (ip), vehicle: other) was 110 % of control and the T/C [19] was 103 % of control. The T/C (dose: 200.0 mg/kg/injection, schedule: Q04DX003 (ip), vehicle: other) was 115 % of control, the T/C [21] was 95 % of control and the T/C (dose: 400.0 mg/kg/injection, schedule: Q04DX003 (ip), vehicle: other) was 103 % of control.
For `CCNCCCN`, the T/C (dose: 25.0 mg/kg/injection, schedule: Q01DX009 (ip), vehicle: saline) was 97 % of control, the T/C [8] was 115 % of control and the T/C (dose: 50.0 mg/kg/injection, schedule: Q01DX009 (ip), vehicle: saline) was 101 % of control. For the same compound, the T/C [9] was 115 % of control, the T/C [17] was 103 % of control and the T/C [18] was 93 % of control and 103 % of control.
For `Cc1cc(=O)oc2c(OS(C)(=O)=O)c(OS(C)(=O)=O)ccc12`, the T/C (dose: 6.25 mg/kg/injection, schedule: Q01DX009 (ip), vehicle: Klucel (hydroxypropylcellulose) (HPC)) was 100 % of control, the T/C (dose: 12.5 mg/kg/injection, schedule: Q01DX009 (ip), vehicle: Klucel (hydroxypropylcellulose) (HPC)) was 100 % of control and the T/C (dose: 25.0 mg/kg/injection, schedule: Q01DX009 (ip), vehicle: Klucel (hydroxypropylcellulose) (HPC)) was 96 % of control and 100 % of control. The T/C [1] was 94 % of control and 88 % of control, the T/C [2] was 97 % of control and the T/C [3] was 105 % of control.
With `O=C(N=C1C=CC(=NC(=O)OCc2ccccc2)C=C1)OCc1ccccc1` the T/C [2] was 98 % of control, the T/C [13] was 92 % of control and the T/C [3] was 100 % of control. For the same compound, the T/C [14] was 88 % of control, the T/C [15] was 100 % of control and the T/C [16] was 90 % of control.
For `NC(c1ccccc1)c1ccccc1`, the T/C [18] was 104 % of control and the T/C [20] was 95 % of control.
`CN(C)C(=O)NCc1ccco1` was tested, and the T/C [7] was 97 % of control, the T/C [8] was 95 % of control and the T/C [9] was 101 % of control.
With `CNC(=O)CO` the T/C [18] was 98 % of control, the T/C [20] was 103 % of control and the T/C [22] was 92 % of control.
